pIC50: −log10 of the molar value. Where two headings read alike, the source gives them in different places. Some results are limits rather than exact numbers.

What is called pIC50 is the negative decadic logarithm of the IC50, by convention in mol/L.

Common to all, as to experiment: CYP450 inhibition, fluorescent probe substrate
Type in all cases: in vitro ADME

One series has as its target T1, CYP1A2 (Homo sapiens, UniProt P05177).
T1 construct: host or cells: recombinant microsomes
T1 sequence (P05177 1-516): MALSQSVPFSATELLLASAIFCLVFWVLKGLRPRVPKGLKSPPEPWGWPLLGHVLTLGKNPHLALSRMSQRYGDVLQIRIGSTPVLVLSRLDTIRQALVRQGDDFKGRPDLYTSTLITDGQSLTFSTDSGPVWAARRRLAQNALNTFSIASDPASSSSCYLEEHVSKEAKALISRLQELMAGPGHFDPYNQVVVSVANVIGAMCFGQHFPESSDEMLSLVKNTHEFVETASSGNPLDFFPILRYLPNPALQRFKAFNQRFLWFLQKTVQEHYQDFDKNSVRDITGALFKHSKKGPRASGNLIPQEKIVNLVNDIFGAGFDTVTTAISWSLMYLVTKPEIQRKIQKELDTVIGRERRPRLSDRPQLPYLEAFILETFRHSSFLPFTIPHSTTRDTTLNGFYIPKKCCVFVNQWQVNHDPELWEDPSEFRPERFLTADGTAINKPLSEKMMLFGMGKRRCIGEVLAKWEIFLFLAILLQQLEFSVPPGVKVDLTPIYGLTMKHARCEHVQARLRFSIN
The protocol:
(§1) Methods: Recombinant human CYP450 isoenzymes were used to metabolize pro-fluorescent probe substrates to fluorescent products. IC50 values determined from the effect of test compounds on the metabolism of these probe substrates were then used to determine inhibitory potency against CYP450 isoforms. The chemical reagents included:
(§2) The test system was based on a three-step procedure with a “mix and read” format, where reaction and reading were performed at 37° C. The assays described herein measure in vitro inhibitory effects (pIC50) of compounds on the human P450 isoforms (1A2, 2B6, 2C8, 2C9, 2C19, 2D6, 3A4) expressed in recombinant microsomes. Pro-fluorescent probe substrates were metabolized to fluorescent products by the enzymes. Fluorescence was measured in kinetic mode (1 read/minutes for 10 minutes), and the fluorescence rate was calculated.
(§3) Inhibition of the fluorescent signal resulting from P450 activation indicated inhibitory activity and facilitated calculation of the compound pIC50. A quality check was included in each compound plate, wherein the signal window was monitored by performing Z′ calculations ([…] ) and the antagonist potency of internal standards was within the pIC50±2SD range. Concentration response curves (CRCs) of compounds were run on two different test occasions (n 2) by preparing serial dilutions from the same compound stock solution.
(§4) To prepare the compound plate, test compounds serial dilutions 1 to 3 were performed from a 10 mM stock solution in DMSO by Biomek FX to generate 10 point CRC with the highest concentrations in columns 3 and 13.
(§5) 100% DMSO was placed in columns 1 and 2 and used for assay low controls. CYP inhibitor (10 mM miconazole solution in DMSO) was placed in columns 23 and 24 and served as an assay high controls. 1 μL copy plates were then stamped into V-bottom drug plates at a concentration that is 200 fold the final assay concentration. The copy plates were diluted prior to the experiment with assay buffer to reach 4 times the final assay concentration (2% w/v DMSO).
(§6) A reference compound (e.g., miconazole) was included in each compound plate in row A, column 3 and 13. The reference compound was diluted and stamped together with test compounds. The final concentrations of the 10 point CRCs of test compounds in the assay plate were 5.00E-05; 1.67E-05; 5.56E-06; 1.85E-06; 6.17E-07; 2.06E-07; 6.86E-08; 2.29E-08; 7.62E-09 and 2.54E-09, respectively. All solutions were prepared immediately before the assay.
(§7) Microsomes were added to the buffer prior to the substrate addition. The solution was carefully mixed without vortexing. 30 μL/well of the mixture was then transferred to the assay plate (384-well black plate) using a 16-channel pipette. For each P450 isoformn, a separate plate was prepared and labeled with a barcode. For fluorescence measurement, 10 μL/well of the test compounds were transferred from the compound plate to the assay plate using Biomek FX and the appropriate protocol. The assay plate was then incubated at 37° C. for 10 minutes on a shaker to allow for the interaction between compounds and enzymes.
(§8) 10 μL/well of the cofactor was then added to the assay plate using the Multidrop before placing the assay plate in the plate reader EnVision to measure fluorescence. The overall final DMSO concentration for the assay was 0.5%. Plates were read every minute for 10 minutes, according to a P450 isoform specific protocol, as shown below.
(§9) Regarding data analysis, inhibition is expressed as a percentage. […] Curve fitting and pIC50 estimations are carried out using a four-parameter logistic model in Morphit.

Another series addresses T2, CYP2C19 (Homo sapiens, UniProt P33261).
T2 construct: host or cells: recombinant microsomes
The protocol:
as §1, §2, §3, §4, §5, §6, §7, §8, §9

The target in another series is T3, CYP2C9 (Homo sapiens, UniProt P11712).
T3 construct: host or cells: recombinant microsomes
The protocol:
as §1, §2, §3, §4, §5, §6, §7, §8, §9

The next series addresses T4, CYP2D6 (Homo sapiens, UniProt P10635).
T4 construct: host or cells: recombinant microsomes
The protocol: as §1, §2, §3, §4, §5, §6, §7, §8, §9

[1] abbreviates: recombinant human isoenzyme, n=2.
[2] abbreviates: recombinant human isoenzyme, n=2, read-out: Inhibition of CYP1A2, IC50.
Setting [3] is: recombinant human isoenzyme, n=2, read-out: Inhibition of CYP2C19, IC50.
[4] abbreviates: recombinant human isoenzyme, n=2, read-out: Inhibition of CYP2C9, IC50.
Where [5] appears, read: recombinant human isoenzyme, n=2, read-out: Inhibition of CYP2D6, IC50.

T3 sequence (P11712 whole entry): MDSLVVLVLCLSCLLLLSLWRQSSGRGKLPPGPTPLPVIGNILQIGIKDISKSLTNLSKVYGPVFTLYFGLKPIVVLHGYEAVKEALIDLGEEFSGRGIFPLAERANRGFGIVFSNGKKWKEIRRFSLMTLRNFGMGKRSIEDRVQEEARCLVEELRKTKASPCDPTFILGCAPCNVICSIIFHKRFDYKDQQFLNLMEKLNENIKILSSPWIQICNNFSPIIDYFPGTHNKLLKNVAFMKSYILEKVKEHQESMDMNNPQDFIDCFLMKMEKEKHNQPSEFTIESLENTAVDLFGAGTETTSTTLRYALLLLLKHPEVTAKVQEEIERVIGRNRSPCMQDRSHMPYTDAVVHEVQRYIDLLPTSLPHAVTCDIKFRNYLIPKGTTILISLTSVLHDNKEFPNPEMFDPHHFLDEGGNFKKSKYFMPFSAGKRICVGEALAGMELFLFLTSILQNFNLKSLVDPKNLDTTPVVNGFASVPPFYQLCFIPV
T4 sequence (P10635 whole entry): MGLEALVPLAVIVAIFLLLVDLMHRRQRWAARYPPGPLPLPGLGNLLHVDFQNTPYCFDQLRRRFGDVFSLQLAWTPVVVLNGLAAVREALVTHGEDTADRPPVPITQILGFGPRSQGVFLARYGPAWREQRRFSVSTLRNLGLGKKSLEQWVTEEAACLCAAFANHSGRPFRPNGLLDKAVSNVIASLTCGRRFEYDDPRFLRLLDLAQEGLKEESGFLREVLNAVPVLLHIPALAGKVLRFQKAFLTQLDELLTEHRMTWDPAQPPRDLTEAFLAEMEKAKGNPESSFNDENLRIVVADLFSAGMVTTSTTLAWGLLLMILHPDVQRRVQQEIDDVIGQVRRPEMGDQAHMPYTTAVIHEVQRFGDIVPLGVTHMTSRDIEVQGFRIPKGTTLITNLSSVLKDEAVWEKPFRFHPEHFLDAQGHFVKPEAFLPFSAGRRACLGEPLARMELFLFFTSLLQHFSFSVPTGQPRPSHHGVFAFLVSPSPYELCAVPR
T2 sequence (P33261 whole entry): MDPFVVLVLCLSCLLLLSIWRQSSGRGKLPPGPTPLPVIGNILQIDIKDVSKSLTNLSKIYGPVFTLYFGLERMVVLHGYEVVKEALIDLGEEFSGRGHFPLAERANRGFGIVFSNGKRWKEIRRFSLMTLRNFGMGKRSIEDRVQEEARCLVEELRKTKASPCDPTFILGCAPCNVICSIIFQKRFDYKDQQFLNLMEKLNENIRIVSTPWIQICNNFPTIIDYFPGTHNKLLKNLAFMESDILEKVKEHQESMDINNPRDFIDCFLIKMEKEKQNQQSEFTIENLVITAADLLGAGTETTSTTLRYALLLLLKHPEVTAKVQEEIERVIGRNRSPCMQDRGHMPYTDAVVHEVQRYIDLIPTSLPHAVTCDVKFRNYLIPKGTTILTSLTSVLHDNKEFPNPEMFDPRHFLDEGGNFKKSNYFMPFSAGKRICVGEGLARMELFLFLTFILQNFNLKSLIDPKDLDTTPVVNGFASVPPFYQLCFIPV

Turning to `COC(=O)c1ccc2c(c1)CC(N)C2` (centres unmarked) [CMP-405, 2-aminoindane-5-methylcarboxylate], the “Inhibition of CYP1A2, IC50” value on CYP1A2 (setting [1]) is listed as “displayed inhibitory activity at CYP1A2”. Besides, the pIC50 at CYP1A2 (setting [2]) is 6.21; at CYP2C19 (setting [3]) it was under 4.30; on CYP2C9 (setting [4]), under 4.30; on CYP2D6 (setting [5]) it was 4.64.
`COC(=O)c1cc2c(cc1OC)CC(N)C2` (centres unmarked) [CMP-401]: the “Inhibition of CYP1A2, IC50” value on CYP1A2 (setting [1]) was “displayed inhibitory activity at CYP1A2”. For the same molecule, the pIC50 is 5.92 on CYP1A2 (setting [2]), under 4.30 at CYP2C19 (setting [3]), under 4.30 at CYP2C9 (setting [4]) and under 4.30 on CYP2D6 (setting [5]).
Consider `COc1ccc2c(c1)CC(N)C2` (centres unmarked) [MEAI, 5-methoxy-2-aminoindane], for which the pIC50 on CYP1A2 was under 4.30; against CYP2C19, under 4.30; against CYP2C9, under 4.30; against CYP2D6 it was 4.43.
In the case of `COc1cc2c(cc1C)CC(N)C2` (centres unmarked) [MMAI, 5-methoxy-6-methyl-2-aminoindane], the pIC50 against CYP1A2 is 5.68; at CYP2C19 it was under 4.30; on CYP2C9, 4.45; against CYP2D6, 4.47. Moreover, the “Inhibition of CYP1A2, IC50” value on CYP1A2 (setting [1]) is “displayed inhibitory activity at CYP1A2”. Moreover, the “Inhibition of CYP2C9, IC50” value at CYP2C9 (setting [1]) was “found to inhibit CYP2C9”.
As for `COC(=O)COc1ccc2c(c1)CC(N)C2` (centres unmarked) [CMP-402], the “Inhibition of CYP1A2, IC50” value at CYP1A2 (setting [1]) is on record as “displayed inhibitory activity at CYP1A2”. In addition, the pIC50 on CYP1A2 (setting [2]) is 5.97; on CYP2C19 (setting [3]), under 4.30; at CYP2C9 (setting [4]), under 4.30; at CYP2D6 (setting [5]), under 4.30.
For `CNC(C)Cc1ccc2c(c1)OCO2` (centres unmarked) [MDMA], the pIC50 was under 4.30 on CYP1A2 (setting [2]), under 4.30 on CYP2C19 (setting [3]), under 4.30 at CYP2C9 (setting [4]) and 5.80 at CYP2D6 (setting [5]).

Values taken from US20260159474A1, “Aminoindane Compounds and Compositions and Methods of Their Therapeutic Use” (Solvonis Therapeutics Ireland Holdings Limited, priority 2021, published 2026).
